The values that follow come from US12480163B2, “Compositions and methods for identification assessment, prevention, and treatment of Ewing sarcoma using TP53 dependency biomarkers and modulators” (Dana-Farber Cancer Institute, Inc., priority 2018, dated 2025).

“Also recorded” adds a separate entry of the source.

In assay [1] the test system is TP53 wild-type Ewing sarcoma cell lines. Briefly: Annexin V staining, flow cytometry (cell death). Type of assay: cell-based. Particulars: TC32 and CHLA258; 2 d ATSP-7041 (2 μM, 4 μM) or P5091 (6.5 μM, 8 μM), 3 d GSK2830371 (15 μM). The protocol: Cell death was measured using flow cytometric analysis of Annexin V staining according to the manufacturer's instructions (eBioscience). Data analysis was completed using Flowjo 7.6 software (Treestar).
(In general: In flow cytometry, cells or beads pass a laser one at a time.)

Assay [2] concerns TP53 mutated Ewing sarcoma cell lines. Put plainly: CellTiter-Glo cell viability assay, TP53 mutated Ewing sarcoma cell lines. The class given is cell-based. Particulars: treated for 3 d. The protocol: (§1) Cell viability was assessed using the CellTiter-Glo® Luminescent Cell Viability Assay (Promega). Viability assays were performed after Ewing sarcoma cell lines were infected with sgRNAs targeting TP53, MDM2, MDM4, PPM1D, or USP7 or treated with ATSP-7041, ATSP-7342, GSK2830371, P5091, XL-188, or vehicle control.
A general note: In ATP-based viability assays light output follows the ATP content of the culture.

The subject of assay [3] is PDX tumors (HSJD-ES-002). Put plainly: Ewing sarcoma PDX (HSJD-ES-002) anti-tumor efficacy study. Type of assay: in vivo, mice. The protocol: j. Ewing Sarcoma Xenograft Studies
For anti-tumor efficacy studies, tumor xenografts were established in 15 nude female mice by implanting three million TC32 cells into the right flank. Animals were randomized to either 20 d of treatment with 30 mg/kg q.o.d. IV ATSP-7041 (n=8) or vehicle (n=7) for a total of 10 doses. Treatment was started when tumors reached 100-200 mm3. Tumor volumes were measured with calipers twice a week. For PDX studies, tumor fragments were implanted into the right flank of nude female mice by minor surgery. After tumor engraftment, studies were performed as described for TC32 xenograft studies.
For in vivo studies, ATSP-7041 was prepared using the following protocol: mPEG-DSPE (Nanocs) was dissolved in chloroform and dried by a rotary evaporator. ATSP-7041 was dissolved in 1 M NaOH and diluted 100-fold in 10 mM histidine-buffered saline to a final concentration of 3 mg/ml. This mixture was added to the dried lipid film to a final mPEG-DSPE concentration of 50 mg/ml and final pH 7. The film was rehydrated by brief sonication and heating in a 50° C. water bath. The mixture was then subjected to five freeze-thaw cycles in liquid nitrogen and 40° C. water, respectively, and the solution passed 10 times through an Avanti Mini-Extruder Set (Avanti Polar Lipids) equipped with a 800-nm filter (Whatman).

Assay [4] relates to PDX tumor tissues. Briefly: Pharmacodynamics study in PDX tumor tissue (Western blot, quantitative PCR). The class given is in vivo, mice. The conditions noted are these: PDX HSJD-ES-002, three doses 30 mg/kg q.o.d. The protocol:
(§2) Whole-cell lysates were extracted in cell lysis buffer (Cell Signaling) supplemented with EDTA-free protease inhibitors and PhosSTOP™ phosphatase inhibitors (Roche). Western immunoblotting was performed using standard techniques. Primary antibodies used included anti-MDM2 (ab178938; Abcam), anti-MDM2 (86934; Cell Signaling), anti-MDM4 (A300-287A; Bethyl Laboratories), anti-p53 (2527S; Cell Signaling), anti-p21 (2946S; Cell Signaling), anti-Vinculin (18058; Abcam), anti-Wip1 (A300-664A; Bethyl Laboratories), anti-pSer15-p53 (9284; Cell Signaling), anti-USP7 (A300-033A; Bethyl Laboratories), and anti-Tubulin (cp06; CalBiochem).
RNA was extracted from cells with the RNeasy® kit and on-column DNA digestion (Qiagen). cDNA was prepared using M-MLV reverse transcription (ThermoFisher Scientific). TaqMan™ Gene Expression Master Mix (Applied Biosystems) was used per the manufacturer's protocol. TaqMan™ probes included RPL13A (Hs04194366_g1; ThermoFisher Scientific), CDKNIA (Hs00355782_m1; Thermo Fisher Scientific), and MDM2 (Hs01066930_m1; ThermoFisher Scientific). Data were collected in triplicate and analyzed using the ΔΔCT method.
For pharmacodynamics studies, tumor xenografts were established in six nude female mice by implanting three million TC32 cells or PDX tumor fragments into the right flank. Animals were randomized to either ATSP-7041 (n=3) or vehicle treatment (n=3). […]
A general note: In western blotting, separated proteins are transferred to a membrane and probed.

Assay [5] concerns MDM2, p53, and p21 protein levels. Put plainly: Western immunoblotting of MDM2, p53, p21 in TP53 wild-type Ewing sarcoma cell lines. Type of assay: cell-based. The protocol: as §2
The test system of assay [6] is TC32, TC138, and CHLA258 cells. Briefly: Drug synergy analysis, Chou-Talalay combination index for Loewe additivity. Type of assay: cell-based. The conditions noted are these: CI<1 synergistic; for combination index, ATSP-7041 combined with P5091: CI>1 antagonistic. The method, then: as §1
k. Drug Synergy Analysis Chou-Talalay Combination Index for Loewe Additivity
Loewe Additivity is a dose-effect approach that estimates the effect of combining two drugs based on the concentration of each individual drug that produces the same quantitative effect (Goldoni and Johansson (2007) Toxicol. In Vitro 21:759-769). […] They introduced the combination index (CI) scores to estimate the interaction between the two drugs. If CI<1, the drugs have a synergistic effect, and if CI>1, the drugs have an antagonistic effect. CI=1 means the drugs have an additive effect.

Setting [7] is: TC32, TC138, CHLA258, 3 d, CI=1 additive.

With `CC(=O)N[C@@H](CC(C)C)C(=O)N[C@H](C(=O)N[C@@H](Cc1ccccc1)C(=O)N[C@]1(C)CCCCCCC=CCCC[C@@](C)(C(=O)N[C@@H](CO)C(=O)N[C@@H](C)C(=O)N[C@@H](C)C(N)=O)NC(=O)[C@H](CC2CCC2)NC(=O)[C@H](CCC(N)=O)NC(=O)[C@H](C)NC(=O)[C@H](Cc2c[nH]c3ccccc23)NC(=O)[C@H](Cc2ccc(O)cc2)NC(=O)[C@H](CCC(=O)O)NC1=O)[C@@H](C)O` [ATSP-7041, Ac-Leu17-Thr-Phe-cyclo(R8-Glu-Tyr-Trp-Ala-Gln-Cba-S5)-Ser-Ala-Ala30-NH2], in assay [1], the “cell death measured by Annexin V staining” value was “triggers cell death; also recorded: induction of cell death”. Moreover, the “cell viability, normalized to vehicle control” value in assay [2] is on record as “resistant”. Further, in assay [3] (PDX HSJD-ES-002, 10 doses 30 mg/kg q.o.d. vs vehicle), the survival of mice result is recorded as “significantly extended”. In addition, the “tumor growth (normalized tumor volume)” value in assay [3] (PDX HSJD-ES-002, 10 doses 30 mg/kg q.o.d. vs vehicle, 30 mg/kg) is on record as “slowed significantly; also recorded: slowed in all mice”. For the same compound, the complete tumor regression entry in assay [3] (PDX HSJD-ES-002, one mouse of n=8, observed time frame of 227 d) is “complete tumor regression without recurrence; also recorded: one out of eight mice achieved complete and sustained remission of disease”. The “p53 pathway protein levels in tumor tissue” value in assay [4] (8 h after last dose) is “increase of MDM2, p53, and p21 protein levels; also recorded: increased intratumoral p53 and p21 protein levels”. Further, in assay [4] (quantitative PCR), the “MDM2 and p21 mRNA levels in tumor tissue” value is “increase of MDM2 mRNA levels; also recorded: increase of p21 mRNA levels; also recorded: increased MDM2 and p21 mRNA levels”. Further, in assay [5] (TC32 cells, 2 d), the “p53 protein levels, combination of ATSP-7041 and doxorubicin” value is listed as “greatly increased p53 protein levels”; the “p53 protein levels, combination of ATSP-7041 and etoposide” value is recorded as “greatly increased p53 protein levels”; the “p53 protein levels, combination of ATSP-7041 and vincristine” value is listed as “greatly increased p53 protein levels”. Moreover, in assay [5] (TP53 wild-type Ewing sarcoma cell lines, Western blot), the “MDM2, p53, and p21 protein levels” value is “increased protein levels of MDM2, p53, and p21; also recorded: Concentration-dependent increases”. Further, the “combination index, ATSP-7041 combined with P5091” value in assay [6] (CHLA258, 5 d, CI=1 additive) is “additivity”. In addition, in assay [6] (setting [7]), the “combination index, ATSP-7041 combined with doxorubicin” value is recorded as “additivity or synergy”; the “combination index, ATSP-7041 combined with etoposide” value is listed as “additivity or synergy”; the “combination index, ATSP-7041 combined with vincristine” value was “additivity or synergy”. For the same compound, the “combination index, ATSP-7041 combined with GSK2830371” value in assay [6] (TC32, TC138, and CHLA258, 3 d) is “strong synergy”. For the same compound, the “combination index, ATSP-7041 combined with P5091” value in assay [6] (TC32 and TC138, 5 d, CI=1 additive) is recorded as “synergy”.
